# pIC50, pKi: −log10 of the molar value.
# Biological target: T1, Dimer of Gag-Pol polyprotein [501-599] (Human immunodeficiency virus 1, UniProt P03367)
# T1 construct: 501-599
# Assay: Protease Inhibition Assay
# Conditions: not given
# Protocol: HIV-1 protease activity was measured by a continuous fluorometric assay. The proteolytic activity can be monitored by the increase in fluorescence intensity, and the protease products were analyzed by HPLC. IC50 values were determined from a dose-response curve, whereas Ki values were obtained by fitting initial rates to a tight-binding inhibition equation.
Compound,pIC50,pKi
"CC(C)CN(C(CO)CCCCNC(=O)[C@@H](NC(=O)c1cccnc1)C(c1ccccc1)c1ccccc1)S(=O)(=O)c1ccc(N)cc1 (stereo partly drawn) [(2S)-N-[(5R)-5-[(4-aminobenzene)(2-methylpropyl)sulfonamido]-6-hydroxyhexyl]-3,3-diphenyl-2-(pyridin-3-ylformamido)propanamide]",9.17,9.26
"CC(C)CN(C(CO)CCCCNC(=O)[C@@H](NC(=O)c1ccncc1)C(c1ccccc1)c1ccccc1)S(=O)(=O)c1ccc(N)cc1 (stereo partly drawn) [(2S)-N-[(5R)-5-[(4-aminobenzene)(2-methylpropyl)sulfonamido]-6-hydroxyhexyl]-3,3-diphenyl-2-(pyridin-4-ylformamido)propanamide]",9.19,9.18
"CC(C)CN(C(CO)CCCCNC(=O)[C@@H](NC(=O)Cc1cccnc1)C(c1ccccc1)c1ccccc1)S(=O)(=O)c1ccc(N)cc1 (stereo partly drawn) [(2S)-N-[(5R)-5-[(4-aminobenzene)(2-methylpropyl)sulfonamido]-6-hydroxyhexyl]-3,3-diphenyl-2-[1-(pyridin-3-yl)acetamido]propanamide]",9.62,9.47
"CC(C)CN(C(CO)CCCCNC(=O)[C@@H](NC(=O)OCc1ccccn1)C(c1ccccc1)c1ccccc1)S(=O)(=O)c1ccc(N)cc1 (stereo partly drawn) [pyridin-2-ylmethyl N-[(1S)-1-{[(5R)-5-[(4-aminobenzene)(2-methylpropyl)sulfonamido]-6-hydroxyhexyl]carbamoyl}-2,2-diphenylethyl]carbamate]",9.92,9.40
"CC(C)CN(C(CO)CCCCNC(=O)[C@@H](NC(=O)OCc1cccnc1)C(c1ccccc1)c1ccccc1)S(=O)(=O)c1ccc(N)cc1 (stereo partly drawn) [pyridin-3-ylmethyl N-[(1S)-1-{[(5R)-5-[(4-aminobenzene)(2-methylpropyl)sulfonamido]-6-hydroxyhexyl]carbamoyl}-2,2-diphenylethyl]carbamate]",9.32,9.44
"CC(C)CN(C(CO)CCCCNC(=O)[C@@H](NC(=O)OCc1ccncc1)C(c1ccccc1)c1ccccc1)S(=O)(=O)c1ccc(N)cc1 (stereo partly drawn) [pyridin-4-ylmethyl N-[(1S)-1-{[(5R)-5-[(4-aminobenzene)(2-methylpropyl)sulfonamido]-6-hydroxyhexyl]carbamoyl}-2,2-diphenylethyl]carbamate]",9.41,10.70
"CC(C)CN(C(CO)CCCCNC(=O)[C@@H](NC(=O)OC(C)(C)C)C(c1ccccc1)c1ccccc1)S(=O)(=O)c1ccc(N)cc1 (stereo partly drawn) [tert-butyl N-[(1S)-1-{[(5R)-5-[(4-aminobenzene)(2-methylpropyl)sulfonamido]-6-hydroxyhexyl]carbamoyl}-2,2-diphenylethyl]carbamate]",9.40,9.30

# Same assay, conditions: pH 4.7; 30 °C
row,Compound,pIC50
1,COC(=O)N1Cc2ccccc2C=C1C(=O)NCCCCC(CO)N(CC(C)C)S(=O)(=O)c1ccc(N)cc1 (stereo unspecified) [lysine sulfonamide analogue 8],6.89
2,COC(=O)N[C@@H](Cc1ccccc1-c1ccccc1)C(=O)NCCCCC(CO)N(CC(C)C)S(=O)(=O)c1ccc(N)cc1 (stereo partly drawn) [methyl N-[(1S)-1-{[(5R)-5-[(4-aminobenzene)(2-methylpropyl)sulfonamido]-6-hydroxyhexyl]carbamoyl}-2-(2-phenylphenyl)ethyl]carbamate],9.28
3,COC(=O)N[C@@H](Cc1cccc2ccccc12)C(=O)NCCCCC(CO)N(CC(C)C)S(=O)(=O)c1ccc(N)cc1 (stereo partly drawn) [methyl N-[(1S)-1-{[(5R)-5-[(4-aminobenzene)(2-methylpropyl)sulfonamido]-6-hydroxyhexyl]carbamoyl}-2-(naphthalen-1-yl)ethyl]carbamate],8.92
4,COC(=O)N[C@@H](Cc1ccc2ccccc2c1)C(=O)NCCCCC(CO)N(CC(C)C)S(=O)(=O)c1ccc(N)cc1 (stereo partly drawn) [methyl N-[(1S)-1-{[(5R)-5-[(4-aminobenzene)(2-methylpropyl)sulfonamido]-6-hydroxyhexyl]carbamoyl}-2-(naphthalen-2-yl)ethyl]carbamate],8.92
5,COC(=O)N[C@@H](Cc1ccccc1)C(=O)NCCCCC(CO)N(CC(C)C)S(=O)(=O)c1ccc(N)cc1 (stereo partly drawn) [methyl N-[(1S)-1-{[(5R)-5-[(4-aminobenzene)(2-methylpropyl)sulfonamido]-6-hydroxyhexyl]carbamoyl}-2-phenylethyl]carbamate],7.92
6,COC(=O)N[C@@H](CCc1ccccc1)C(=O)NCCCCC(CO)N(CC(C)C)S(=O)(=O)c1ccc(N)cc1 (stereo partly drawn) [methyl N-[(1S)-1-{[(5R)-5-[(4-aminobenzene)(2-methylpropyl)sulfonamido]-6-hydroxyhexyl]carbamoyl}-3-phenylpropyl]carbamate],7.40
7,COC(=O)N[C@H](C(=O)NCCCCC(CO)N(CC(C)C)S(=O)(=O)c1ccc(N)cc1)c1ccccc1 (stereo partly drawn) [methyl N-[(S)-{[(5R)-5-[(4-aminobenzene)(2-methylpropyl)sulfonamido]-6-hydroxyhexyl]carbamoyl}(phenyl)methyl]carbamate],< 6.52
